The source made the active and inactive calls.
Tests used:
[1] = HEK-293T cell viability reduction – luminescence, B-cell screen hits, cytotoxicity control for BCR NF-kB inhibitor project, dose response (AID 489021); type: functional, cell-based;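 also: HEK-293T cells carrying an NF-kB luciferase reporter; cells exposed to compound for about 14 hours before viability readout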
cells [2] = type: functional, cell-based
[3] = biological target: T1, Trace amine-associated receptor 1 (Homo sapiens, UniProt Q96RJ0); experiment: Fluorescence-based cell-based high throughput dose response assay to identify agonists of the human trace amine associated receptor 1 (TAAR1).; type: functional
T1 sequence (Q96RJ0 whole entry): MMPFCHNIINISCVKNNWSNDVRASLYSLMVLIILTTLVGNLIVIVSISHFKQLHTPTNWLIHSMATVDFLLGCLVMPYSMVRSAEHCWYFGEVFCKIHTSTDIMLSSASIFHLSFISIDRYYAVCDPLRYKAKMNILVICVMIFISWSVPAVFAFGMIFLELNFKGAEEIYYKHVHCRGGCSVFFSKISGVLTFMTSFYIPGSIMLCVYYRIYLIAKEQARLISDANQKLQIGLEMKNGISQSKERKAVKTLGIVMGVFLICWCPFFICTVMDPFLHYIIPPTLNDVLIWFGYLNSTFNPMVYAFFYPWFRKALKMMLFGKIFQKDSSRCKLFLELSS

[4] = biological target: T1, Trace amine-associated receptor 1; experiment: Counterscreen for agonists of the human trace amine associated receptor 1 (hTAAR1): Fluorescence-based cell-based high throughput dose response assay to identify hTAAR1 agonist that also desensitize TAAR1 receptor response.; type: functional
cells [5] = type: functional, cell-based; remark: listed apart in the source
[6] = biological target: Induced myeloid leukemia cell differentiation protein Mcl-1 (Homo sapiens, UniProt Q07820); type: functional
Chain of Induced myeloid leukemia cell differentiation protein Mcl-1 (Q07820 whole entry): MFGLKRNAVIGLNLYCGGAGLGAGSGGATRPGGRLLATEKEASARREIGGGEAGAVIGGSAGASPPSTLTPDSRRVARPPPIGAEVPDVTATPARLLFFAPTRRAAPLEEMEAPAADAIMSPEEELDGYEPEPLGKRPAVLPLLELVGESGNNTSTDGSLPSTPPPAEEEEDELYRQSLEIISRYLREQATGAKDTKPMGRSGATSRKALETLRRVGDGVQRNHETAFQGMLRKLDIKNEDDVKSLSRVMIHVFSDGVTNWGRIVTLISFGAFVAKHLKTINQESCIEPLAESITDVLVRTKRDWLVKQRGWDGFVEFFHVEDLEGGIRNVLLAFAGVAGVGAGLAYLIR

Large T antigen = Large T antigen (Simian virus 40, UniProt P03070); type: functional, Betapolyomavirus macacae;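 also: Confirmatory-stage PubChem screen for compounds that inhibit SV40 T antigen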
Chain of Large T antigen (P03070 whole entry): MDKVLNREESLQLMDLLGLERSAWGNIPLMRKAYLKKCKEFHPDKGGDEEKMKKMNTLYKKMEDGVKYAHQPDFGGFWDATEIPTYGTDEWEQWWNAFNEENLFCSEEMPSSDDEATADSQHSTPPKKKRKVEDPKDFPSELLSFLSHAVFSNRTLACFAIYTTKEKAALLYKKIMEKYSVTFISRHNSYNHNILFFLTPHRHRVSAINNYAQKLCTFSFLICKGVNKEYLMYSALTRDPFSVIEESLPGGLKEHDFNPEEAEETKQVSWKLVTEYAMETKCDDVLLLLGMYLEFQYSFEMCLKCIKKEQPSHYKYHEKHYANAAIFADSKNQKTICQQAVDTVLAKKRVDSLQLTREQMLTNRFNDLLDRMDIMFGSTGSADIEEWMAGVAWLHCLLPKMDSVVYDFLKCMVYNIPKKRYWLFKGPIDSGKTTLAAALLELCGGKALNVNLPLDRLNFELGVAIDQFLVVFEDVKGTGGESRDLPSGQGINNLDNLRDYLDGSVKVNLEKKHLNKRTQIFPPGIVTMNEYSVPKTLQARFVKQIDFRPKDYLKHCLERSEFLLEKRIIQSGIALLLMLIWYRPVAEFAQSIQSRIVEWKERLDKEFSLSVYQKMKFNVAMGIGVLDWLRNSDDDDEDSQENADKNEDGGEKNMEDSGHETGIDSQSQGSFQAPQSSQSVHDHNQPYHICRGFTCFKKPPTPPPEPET

[7] = biological target: T2, Rac GTPase-activating protein 1 (Homo sapiens, UniProt Q9H0H5); experiment: blockers of MgcRacGAP-driven Rac1 GTP hydrolysis – biochemical, ADP Hunter fluorescence, primary and confirmatory, confirmation (AID 624330); type: functional
T2 sequence (Q9H0H5 whole entry): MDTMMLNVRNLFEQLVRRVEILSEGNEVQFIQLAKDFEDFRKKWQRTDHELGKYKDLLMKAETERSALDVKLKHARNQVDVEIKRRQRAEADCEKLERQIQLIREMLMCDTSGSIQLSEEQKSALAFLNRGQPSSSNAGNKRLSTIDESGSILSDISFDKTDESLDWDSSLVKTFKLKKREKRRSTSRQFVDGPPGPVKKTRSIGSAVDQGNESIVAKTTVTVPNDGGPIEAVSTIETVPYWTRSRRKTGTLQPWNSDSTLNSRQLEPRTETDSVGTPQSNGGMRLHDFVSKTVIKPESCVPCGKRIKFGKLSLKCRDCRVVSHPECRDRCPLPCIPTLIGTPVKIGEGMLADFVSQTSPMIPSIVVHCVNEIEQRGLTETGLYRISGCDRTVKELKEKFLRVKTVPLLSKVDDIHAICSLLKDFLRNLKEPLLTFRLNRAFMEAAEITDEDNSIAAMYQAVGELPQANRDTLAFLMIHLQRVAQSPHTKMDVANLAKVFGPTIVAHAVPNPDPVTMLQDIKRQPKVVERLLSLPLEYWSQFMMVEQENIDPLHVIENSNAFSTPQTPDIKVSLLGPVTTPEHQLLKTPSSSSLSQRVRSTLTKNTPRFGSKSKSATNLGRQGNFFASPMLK

[8] = test system: Streptococcus sp. 'group A'; experiment: Streptococcus pyogenes SK(-)GAS viability under kanamycin – luminescence, BacTiterGlo, confirmation, counter-screen for streptokinase expression inhibitor project, dose response (AID 1900); type: functional, organism-based
Streptokinase A = biological target: T3, Streptokinase A (Streptococcus pyogenes serotype M1, UniProt P10520); experiment: viability-normalized secreted streptokinase activity reduction – plasminogen activation absorbance, OD405, dose response (AID 1914); type: functional, Streptococcus pyogenes M1 GAS;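 also: secreted streptokinase activity via plasminogen activation per viability signal from cell pellet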
T3 sequence (P10520 whole entry): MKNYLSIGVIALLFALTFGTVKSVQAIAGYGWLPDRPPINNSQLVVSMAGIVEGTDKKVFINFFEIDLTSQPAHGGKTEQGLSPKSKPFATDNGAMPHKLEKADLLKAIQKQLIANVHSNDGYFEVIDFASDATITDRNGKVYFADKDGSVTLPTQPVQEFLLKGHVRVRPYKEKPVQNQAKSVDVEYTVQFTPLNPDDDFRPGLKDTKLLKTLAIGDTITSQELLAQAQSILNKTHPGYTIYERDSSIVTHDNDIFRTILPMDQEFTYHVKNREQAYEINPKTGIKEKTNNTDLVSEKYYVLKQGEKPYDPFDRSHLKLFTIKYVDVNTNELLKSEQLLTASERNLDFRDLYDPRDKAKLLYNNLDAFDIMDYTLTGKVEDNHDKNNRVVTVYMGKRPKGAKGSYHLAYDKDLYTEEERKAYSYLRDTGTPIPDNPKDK

Streptococcus = experiment: GAS UMAA2166 growth inhibition – luminescence, BacTiterGlo, counter-screen for streptokinase expression inhibitor project, dose response (AID 1915); type: functional, organism-based;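 also: potency for reduction of bacterial viability or growth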
Vero = experiment: cells; type: functional; details: Chlorocebus sabaeus
[9] = biological target: T4, Carboxy-terminal domain RNA polymerase II polypeptide A small phosphatase 1 (Homo sapiens, UniProt Q9GZU7); experiment: CTDSP1 inhibitors, concentration-response, biochemical, absorbance readout, ultra-high-throughput screen actives (AID 540297); type: functional
T4 sequence (Q9GZU7 whole entry): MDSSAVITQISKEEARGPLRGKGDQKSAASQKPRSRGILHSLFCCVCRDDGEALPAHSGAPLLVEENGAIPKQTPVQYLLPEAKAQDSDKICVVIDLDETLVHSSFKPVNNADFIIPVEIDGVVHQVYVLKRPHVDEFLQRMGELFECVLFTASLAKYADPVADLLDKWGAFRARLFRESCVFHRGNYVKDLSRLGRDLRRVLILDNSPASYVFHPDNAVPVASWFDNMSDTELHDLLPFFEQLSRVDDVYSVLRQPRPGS

[10] = viability of uninfected HEp-2 cells – cell-based, HTS, cytotoxicity control for RSV inhibitor project, dose response (AID 2410); type: functional; details: human respiratory syncytial virus
cells [11] = type: functional, cell-based; remark: listed apart in the source
cells [12] = type: functional, cell-based; remark: listed apart in the source
Caspase-6 = biological target: T5, Caspase-6 (Homo sapiens, UniProt P55212); experiment: inhibition of CASP6 peptide cleavage – biochemical, VEID-R110 fluorescence, cherry-pick, dose response (AID 720632)
T5 sequence (P55212 whole entry): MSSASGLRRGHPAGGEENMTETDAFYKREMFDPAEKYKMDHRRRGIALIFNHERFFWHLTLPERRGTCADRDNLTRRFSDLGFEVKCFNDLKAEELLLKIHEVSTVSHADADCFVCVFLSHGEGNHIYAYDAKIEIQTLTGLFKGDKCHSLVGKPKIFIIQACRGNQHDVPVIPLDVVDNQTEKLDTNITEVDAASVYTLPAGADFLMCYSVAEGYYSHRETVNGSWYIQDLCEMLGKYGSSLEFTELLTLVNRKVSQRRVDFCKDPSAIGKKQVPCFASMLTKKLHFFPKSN

## Cc1ccc(C(=O)CSc2nnc(COc3cc(C)cc(C)c3)o2)cc1
[1]
  IC50: > 80 µM (inactive)

## COc1ccccc1N1CN(CCc2ccccc2)CN=C1S
Cells [2]
  IC50: > 29.9 µM (inactive)
[3]
  EC50: 1.28 µM (active)
[4]
  IC50: 6.11 µM (active)
Cells [5]
  EC50: > 29.9 µM (inactive)

## OCCNc1nc(Nc2ccccc2)nc(Nc2ccccc2)n1
[6]
  IC50: 24.3 µM (not active)

## Cc1cc(O)ccc1N/C=C1\CCCC1=O
Large T antigen
  IC50: 29.8 µM (active)
[7]
  IC50: 22.7 µM (active)

## Cc1oc(-c2ccccc2Cl)nc1Cn1cccc1C1=NC(c2ccccc2)CO1 (centres undefined)
[8]
  EC50: > 150 µM (not active)
Streptokinase A
  EC50: > 50 µM (not active)
Streptococcus
  EC50: > 150 µM (not active)
Vero
  CC50: > 25 µM (active)

## Cc1cccc(NC(=O)CSc2nc3nc(O)cc(O)c3s2)c1
[9]
  IC50: 15.9 µM (active)

## Cc1nc([N+](=O)[O-])c(Sc2nc3cc([N+](=O)[O-])ccc3[nH]2)n1Cc1ccccc1
[10]
  CC50: 12.6 µM (active)
[1]
  IC50: > 80 µM (inactive)

## Cc1cc(-c2nnc(S)n2/N=C/c2c[nH]c3ccccc23)[nH]n1
Large T antigen
  IC50: 64 µM (active)

## CNC(=O)c1cccn(Cc2ccc(C(F)(F)F)cc2)c1=O
[1]
  IC50: > 80 µM (inactive)

## CCOC(=O)c1c(C)[nH]c(C)c1S(=O)(=O)N1c2ccccc2CC1C (centres undefined)
Cells [11]
  EC50: > 350 µM (not active)
Cells [12]
  EC50: > 350 µM (not active)

## O=C(N[C@H](C(=O)N1CCC[C@H]1C(=O)NCCc1ccccc1Cl)c1ccccc1)c1ccco1
Cells [2]
  IC50: > 29.9 µM (inactive)
[3]
  EC50: 10.3 µM (inactive)
[4]
  IC50: > 29.9 µM (inactive)
Cells [5]
  EC50: > 29.9 µM (inactive)

## COC(=O)c1ccc(COc2ccccc2/C=N/NS(=O)(=O)c2ccccc2)cc1
Cells [11]
  EC50: > 350 µM (not active)
Cells [12]
  EC50: > 350 µM (not active)

## CC(C)C(=O)N1CCN(c2nc3ccc(Cl)cc3s2)CC1
Cells [11]
  EC50: > 350 µM (not active)
Cells [12]
  EC50: > 350 µM (not active)

## O=c1c2ccccc2[nH]c2ccc(O)cc12
Large T antigen
  IC50: 9.16 µM (active)
Caspase-6
  AC50: 17.7 µM (active)

From ChEMBL document CHEMBL1201862, “PubChem BioAssay data set” (2004)
